Tests used:
RARγ = molecular target: T1, RARγ (Homo sapiens, UniProt P13631); assay: RARγ binding assay (SPA, 3H-TTNPB competition); details: RARγ/RXRα heterodimer
T1 construct: made in house; host or cells: baculovirus expression system
T1 sequence (P13631 1-454): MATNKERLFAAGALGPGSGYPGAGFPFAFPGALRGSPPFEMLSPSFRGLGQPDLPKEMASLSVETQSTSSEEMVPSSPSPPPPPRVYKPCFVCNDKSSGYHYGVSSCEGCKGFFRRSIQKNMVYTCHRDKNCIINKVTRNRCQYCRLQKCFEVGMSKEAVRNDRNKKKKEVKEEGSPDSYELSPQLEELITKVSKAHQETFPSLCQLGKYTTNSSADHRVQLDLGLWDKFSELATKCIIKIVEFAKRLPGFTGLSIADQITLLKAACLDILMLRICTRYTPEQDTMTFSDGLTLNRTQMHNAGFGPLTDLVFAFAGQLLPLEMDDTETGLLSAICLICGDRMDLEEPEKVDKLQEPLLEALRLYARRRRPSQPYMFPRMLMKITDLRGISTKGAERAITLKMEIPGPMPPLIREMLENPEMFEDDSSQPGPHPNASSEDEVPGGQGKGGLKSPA
T1 sequence (P19793 1-462 partner): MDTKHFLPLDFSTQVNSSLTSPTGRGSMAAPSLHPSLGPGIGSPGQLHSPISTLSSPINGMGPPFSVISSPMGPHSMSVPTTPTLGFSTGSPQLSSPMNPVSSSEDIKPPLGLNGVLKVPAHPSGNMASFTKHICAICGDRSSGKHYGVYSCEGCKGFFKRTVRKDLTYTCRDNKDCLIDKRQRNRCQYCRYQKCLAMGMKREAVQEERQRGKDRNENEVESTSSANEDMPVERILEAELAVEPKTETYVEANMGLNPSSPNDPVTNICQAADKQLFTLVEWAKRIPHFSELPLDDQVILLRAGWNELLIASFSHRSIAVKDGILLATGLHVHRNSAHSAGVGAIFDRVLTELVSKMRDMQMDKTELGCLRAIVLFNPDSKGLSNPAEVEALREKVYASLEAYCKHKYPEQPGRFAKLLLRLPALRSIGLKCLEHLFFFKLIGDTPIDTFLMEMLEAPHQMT
Text: (§1) Compounds can be evaluated for binding to RARα, β and γ by measuring their ability to competitively bind to the RAR receptors when dimerized with the binding partner RXRα. Competitive binding assays may be carried out by Scintillation Proximity Assay (SPA) technology using the RARα, β or γ heterodimer (with RXRα as a partner with all the RARs) receptors prepared in a baculovirus expression system. Use the biotinylated oligonucleotide: 5′-[…]-3′ for binding of receptor to yttrium silicate streptavidin-coated SPA beads. Per well, preincubate […] with 82.7 μg SPA beads in a binding buffer containing 10 mM HEPES pH 7.8, 80 mM KCl, 0.5 mM MgCl2, 1 mM DTT, 0.5% CHAPS and 16.6 μg bovine serum albumin for 30 min at room temperature. Then spin the mixture at 2,000 rpm for 3 min to pelletize the beads-oligo mix. Remove the supernatant and resuspend the beads-oligo pellet in the same binding buffer as above, but which in addition now also contain 14% glycerol, 5 μg of sheared salmon sperm DNA, 0.5 μg of RARα, 1.0 μg of RARβ, or 0.25 μg of RARγ receptor, respectively. Carry out the binding assays in the presence of ˜11.3 μCi of ^3H 4-[(E)-2-(5,6,7,8-tetrahydro-5,5,8,8-tetramethyl-2-naphthalenyl)-1-propenyl]benzoic acid (TTNPB), and multiple concentrations of test compound ranging from (5 nM to 10 μM). Non-specific binding may be determined in the presence of 1 μM unlabeled TTNPB. Use the data to calculate an IC50 for compounds after fitting the dose-response curves to a 4-parameter logistic fit. Use the Cheng-Prusoff equation to convert IC50 (nM) values for compounds to Ki, and the Kd may be determined by saturation binding.

RARα = molecular target: T2, RARα (Homo sapiens, UniProt P10276); assay: RARα binding assay (SPA, 3H-TTNPB competition); details: RARα/RXRα heterodimer
T2 construct: made in house; host or cells: baculovirus expression system
T2 sequence (P10276 1-462): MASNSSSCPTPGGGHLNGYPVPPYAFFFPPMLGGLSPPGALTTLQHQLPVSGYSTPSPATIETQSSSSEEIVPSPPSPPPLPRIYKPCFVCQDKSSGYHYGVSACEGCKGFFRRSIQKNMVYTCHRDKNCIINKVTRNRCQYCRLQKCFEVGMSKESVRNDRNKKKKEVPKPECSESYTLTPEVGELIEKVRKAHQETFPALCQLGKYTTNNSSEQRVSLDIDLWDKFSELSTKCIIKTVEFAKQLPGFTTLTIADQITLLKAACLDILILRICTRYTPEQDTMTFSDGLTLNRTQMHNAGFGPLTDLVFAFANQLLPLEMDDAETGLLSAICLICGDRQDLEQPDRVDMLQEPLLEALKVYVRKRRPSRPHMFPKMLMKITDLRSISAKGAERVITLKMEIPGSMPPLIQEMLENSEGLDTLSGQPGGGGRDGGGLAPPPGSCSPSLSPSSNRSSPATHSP
T2 sequence (P19793 1-462 partner): T1 sequence (P19793 1-462 partner)
Text: as §1

RARβ = molecular target: T3, RARβ (Homo sapiens, UniProt P10826); assay: RARβ binding assay (SPA, 3H-TTNPB competition); details: RARβ/RXRα heterodimer
T3 construct: made in house; host or cells: baculovirus expression system
T3 sequence (P10826 1-455): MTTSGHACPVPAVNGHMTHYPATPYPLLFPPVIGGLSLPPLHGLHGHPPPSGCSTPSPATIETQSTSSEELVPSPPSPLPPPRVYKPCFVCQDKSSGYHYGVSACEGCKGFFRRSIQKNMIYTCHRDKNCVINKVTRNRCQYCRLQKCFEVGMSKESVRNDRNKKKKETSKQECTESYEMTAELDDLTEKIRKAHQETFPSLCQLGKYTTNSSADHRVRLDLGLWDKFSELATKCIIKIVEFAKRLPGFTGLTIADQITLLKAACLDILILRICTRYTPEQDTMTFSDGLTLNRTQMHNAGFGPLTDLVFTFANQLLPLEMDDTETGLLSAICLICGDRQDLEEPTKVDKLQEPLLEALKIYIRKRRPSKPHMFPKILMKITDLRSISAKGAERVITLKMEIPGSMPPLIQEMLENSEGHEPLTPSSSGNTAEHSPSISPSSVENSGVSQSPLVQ
T3 sequence (P19793 1-462 partner): T1 sequence (P19793 1-462 partner)
Text: as §1

Ki (RARγ) [nM] | Ki (RARα) [nM] | Ki (RARβ) [nM] | SMILES
1.69 | > 970 | > 1820 | CN1CCN(C(=O)c2ccc(-n3nc(-c4ccc(C(=O)O)cc4)cc3-c3cc(C(C)(C)C)cc(C(C)(C)C)c3)cc2)CC1 [Example 1, 4-[5-(3,5-Di-tert-butylphenyl)-1-[4-(4-methylpiperazine-1-carbonyl)phenyl]pyrazol-3-yl]benzoic Acid]
1.58 | 357 | 1400 | CC(C)(C)c1cc(-c2cc(-c3ccc(C(=O)O)cc3)nn2-c2ccc(C(=O)N3CCOCC3)cc2)cc(C(C)(C)C)n1 [Example 8, 4-[5-(2,6-Di-tert-butyl-4-pyridyl)-1-[4-(morpholine-4-carbonyl)phenyl]pyrazol-3-yl]benzoic acid]
3.06 | 386 | 609 | CC(C)Sc1cc(-c2cc(-c3ccc(C(=O)O)cc3)nn2-c2ccc(C(=O)N(C)C)cc2)cc(C(C)(C)C)c1 [Example 12, 4-[5-(3-tert-Butyl-5-isopropylsulfanyl-phenyl)-1-[4-(dimethylcarbamoyl)phenyl]pyrazol-3-yl]benzoic Acid]
2.76 | 285 | 828 | CC(C)(C)c1cc(-c2cc(-c3ccc(C(=O)O)cc3)nn2-c2ccc(S(C)(=O)=O)cc2)cc(C(C)(C)C)c1 [Example 19, 4-[5-(3,5-Di-tert-butylphenyl)-1-(4-methylsulfonylphenyl)pyrazol-3-yl]benzoic Acid]

Source: US20140275049A1, “SUBSTITUTED PYRAZOLE ANALOGS As RAR ANTAGONISTS” (Eli Lilly and Company, priority 2011, published 2014)
